Experimental findings from patent US4173641A, “Di-O-n-alkyl glycerol derivatives as immune stimulants” (priority 1978, dated 1979) are described below.

Several values for one entry are separate records, joined by “and”; a condition that tells them apart may be missing. Equal entries are not always repeated. Structures can show the parent of a compound that is named as a salt. Where two headings read alike, the source gives them in different places.

Data set [1] relates to S-180J cells (sarcoma 180J). As to the kind of experiment: Sarcoma 180J model for assessment of tumor rejection. Particulars: for number of 40 day survivors: six mice per group. The data set is classed as in vivo, female CD-1 mice. The method, then: Six female CD-1 mice (20-25 g) per group received 10^6 S-180J cells which were 5 to 8 days old by intraperitoneal administration. On the day following tumor innoculation the mice received 0.1 ml of the test compound formulated in the fat emulsion vehicle Intralipid (Cutter Laboratories) at the desired dose and were then observed until death or 40 days, whichever occurs first. Results are expressed as increased percent life span (%ILS), defined as follows: [formula] Results obtained by the above test procedure were as follows:
Results of the above test obtained with (1-hydroxy-2-alkylamino ethyl)-benzyloxy analogs of this invention formulated in Tween 80-glycerol-water are shown in Table 2.
(Numbers in parentheses in Tables 1 and 2 above are the number

Data set [2] is described as follows: in vivo. Particulars: read-out: therapeutic index. Further details: species or system mice and rats. An excerpt: The compounds may be used in pharmaceutical preparations containing the compound or a pharmaceutically acceptable salt thereof in combination with a pharmaceutically acceptable carrier or diluent. A particularly preferred type of pharmaceutical carrier for this purpose is a sterile fat or lipid emulsion vehicle. […] Such advantages have been reported for other compounds used with such fat emulsion vehicles, see for example Fortner, et al., American Journal of Hospital Pharmacy, 32, 502 (1975) and Jeppsson, et al., First International Conference on Pharmaceutical technology, Faculty of Pharmacy, Paris-Sud, June 1977. An example of a particularly suitable vehicle is Intralipid (Cutter Laboratories, Berkeley, California), a 10% fat emulsion, based on soybean oil. However, other similar vehicles would be suitable and may be readily prepared by those skilled in the art.

Data set [3] concerns L 1210 cells / peritoneal macrophages. As to the kind of experiment: Assessment of peritoneal macrophage activation (inhibition of DNA synthesis in L 1210 cells). The format is in vivo, mice. The following applies: Mus musculus, L1210, ip, intraperitoneal, macrophages harvested 72 hours later. The protocol:
(§1) Mice were injected intraperitoneally with saline or the test compound. Macrophages were harvested 72 hours later by intraperitoneal injection of 3 ml 8% fetal calf serum-- 92% RPMI 1640 medium (Grand Island Biological Co., N.Y.) (164092 FCS8) plus 5 units/ml of heparin, the temperature of all media being kept at 37° C., lavaged 1 to 2 minutes, opened and all peritoneal fluid drawn off with a sterile, siliconized pipet into a 50 ml plastic tube kept in ice. The macrophages were counted using a hemocytometer and adjusted to a concentration of 1.5×10^6 /ml with 164092 FCS8. The cells were then placed in multiwell plates, 1.5×10^6 cells per well, and incubated for 1 to 2 hours at 37° C. in a 5% carbon dioxide atmosphere. The supernate was discarded and the cells were washed once with media, the macrophages adhering to the bottom of the wells. L 1210 cells (harvested from ascites of DBA mice approximately 5 days after innoculation) in 164092 FCS8 were then added, 1 ml of 1×10^5 cells/ml to each well and incubated at 37° C. for 24 to 30 hours in a 5% carbon dioxide atmosphere. The cells were then pulsed with ^3 H-Tdr (1.0μCi/ml; Amersham/Searles) for 6 hours at 37° C., the supernate drawn off using a cell harvester: Reeve-Angel filter, and washed five times with saline. The filter discs were allowed to dry and placed in scintillation vials with LSC scintillation fluid (5.0 g PPO and 0.2 g POPOP/liter toluene; Yorktown Research). Counting was done for 2 minutes using a Beekman LS-250 β-counter.

Data set [4] deals with L1210 cells / peripheral blood monocytes. The data set can be described thus: Assessment of peripheral blood monocyte activation (inhibition of DNA synthesis in L1210 cells). The format is in vivo, rats. The following applies: Rattus norvegicus, intravenous, monocytes harvested 72 hours later, Effector:Target ratio 15:1. The method, then: as §1, with “The cells were then pulsed with ^3 H-Tdr (1.0μCi/ml; Amersham/Searles) for 6 hours at 37° C., the supernate drawn off using a cell harvester: Reeve-Angel filter, and washed five times with saline. The filter discs were allowed to dry and placed in scintillation vials with LSC scintillation fluid (5.0 g PPO and 0.2 g POPOP/liter toluene; Yorktown Research). Counting was done for 2 minutes using a Beekman LS-250 β-counter.” left out
Rats were injected intravenously with the test compound, or with saline for control animals. […] Following the procedure described in Example 13 the cells were pulsed with ^3 H-Tdr and counted with a scintillation counter.

Data set [5] concerns Influenza virus. As to the kind of experiment: Vaccine adjuvanticity - hemagglutination inhibition test. The data set is classed as in vivo, Hartley female guinea pigs (vaccinated); influenza virus. Particulars: for Hemagglutination Titer: compound (5 mg) with Fluogen, individual animal.
Setting [6] is: 5 mg/kg, Tween 80-glycerol-water.
[7] abbreviates: 15 mg/kg, Tween 80-glycerol-water.
Where [8] appears, read: 50 mg/kg, Tween 80-glycerol-water.
[9] abbreviates: 0.25 mg/kg, fat emulsion vehicle Intralipid.
Setting [10] is: 1 mg/kg, fat emulsion vehicle Intralipid.
Where [11] appears, read: 4 mg/kg, fat emulsion vehicle Intralipid.
The mark [12] stands for this setting: 16 mg/kg, fat emulsion vehicle Intralipid.

Consider `CCCCCCCCCCCCCCCCOCC(COCCCCCCCCCCCCCCCC)OCc1cccc(C(O)CNC(C)(C)C)c1` (stereo not drawn) [C(CH3)3 1,3], for which the results for the “%ILS (increased percent life span)” value in data set [1] (setting [6]), in data set [1] (setting [7]) and in data set [1] (setting [8]) were 159%, 171% and 157%, respectively. In addition, the results for the “number of 40 day survivors” value in data set [1] (setting [6]), in data set [1] (setting [7]) and in data set [1] (setting [8]) were 1, 3 and 2, respectively.
As for `CCCCCCCCCCCCCCCCOCC(COCc1cccc(C(O)CNC(C)(C)C)c1)OCCCCCCCCCCCCCCCC.Cl` (stereo not drawn) [C(CH3)3 2,3, 1,2-Di-O-(n-hexadecyl)-3-O-[3-(1-hydroxy-2-t-butylaminoethyl)benzyl]-glycerol hydrochloride], the “%ILS (increased percent life span)” value in data set [1] (setting [6]) amounted to 166%; in data set [1] (setting [7]) it was 181%; in data set [1] (setting [8]), 182%. The “number of 40 day survivors” value in data set [1] (setting [6]) is 2; in data set [1] (setting [7]) it was 4; in data set [1] (setting [8]), 4.
Consider `CCCCCCCCCCCCCCCCOCC(COCc1cccc(C(O)CNC(C)C)c1)OCCCCCCCCCCCCCCCC` (stereo not drawn) [CH(CH3)2 2,3], for which the “%ILS (increased percent life span)” value in data set [1] (setting [6]) was determined as 174%; in data set [1] (setting [7]), 135%; in data set [1] (setting [8]) it was 147%. The “number of 40 day survivors” value in data set [1] (setting [6]) and in data set [1] (setting [8]) was 1 each time.
In the case of `CCCCCCCCOCC(CN1CCC(CN)(c2ccccc2)CC1)OCCCCCCCC` (stereo not drawn) [n-C8 H17], the “%ILS (increased percent life span)” value is on record as 113% in data set [1] (setting [9]), 109% in data set [1] (setting [10]), 154% in data set [1] (setting [11]) and 192% in data set [1] (setting [12]). Moreover, the “number of 40 day survivors” value in data set [1] (4 mg/kg, Intralipid) was determined as 1; in data set [1] (16 mg/kg, Intralipid) it was 4. Further, the selectivity ratio in data set [2] (Tween 80-glycerol-water formulations) is about 3; in data set [2] (sterile fat or lipid emulsion vehicle, parenteral and intravenous), 15 to 25.
As usually defined, the inhibition is the change of the read-out against control, counted positive when it falls. Take `CCCCCCCCCCOCC(CN1CCC(CN)(c2ccccc2)CC1)OCCCCCCCCCC` (stereo not drawn) [n-C10 H21, 4-Aminomethyl-1-[2,3-(di-n-decyloxy)-n-propyl]-4-phenylpiperidine]: the “%ILS (increased percent life span)” value in data set [1] (setting [9]) is listed as 127%; in data set [1] (setting [10]) it was 139%; in data set [1] (setting [11]), 110%; in data set [1] (setting [12]) it was 108%. In data set [1] (1 mg/kg, Intralipid), the “number of 40 day survivors” value is listed as 1. In addition, the inhibition at 0.313 mg/kg in data set [3] (0.313 mg/kg) was 56%. Besides, testing at 0.625 mg/kg in data set [3] (0.625 mg/kg) gave an inhibition of 94%. For the same molecule, the inhibition at 1.25 mg/kg in data set [3] (1.25 mg/kg) is 76%; in data set [4], 80%. Moreover, the “Hemagglutination Titer” value in data set [5] (day 15 after primary sensitization) was 10 and 0; in data set [5] (day 30 after primary sensitization (rechallenge day)) it was 10 and 40 and 20 and 0; in data set [5] (day 44 after primary sensitization, rechallenged at 30 days) it was 80 and 640 and 10 and 40; in data set [5] (day 65 after primary sensitization, rechallenged at 30 days), 1280 and 2560 and 160 and 20 and 10. Also, the “hemagglutination titer observed after rechallenge (adjuvant activity)” value in data set [5] (compound with Fluogen, in words) is listed as “higher hemagglutination titer observed after rechallenge”.
For `CCCCCCCCCCCCCCOCC(CN1CCC(CN)(c2ccccc2)CC1)OCCCCCCCCCCCCCC` (stereo not drawn) [n-C14 H29], the “number of 40 day survivors” value in data set [1] (0.25 mg/kg, Intralipid) is 1. For the same molecule, the “%ILS (increased percent life span)” value in data set [1] (setting [9]) worked out at 129%; in data set [1] (setting [10]), 116%; in data set [1] (setting [11]), 133%; in data set [1] (setting [12]) it was 109%. In data set [3] (25 mg/kg), this molecule yielded an inhibition at 25 mg/kg of 90%.
Regarding `CCCCCCCCCCCCCCCCOCC(CN1CCC(CN)(c2ccccc2)CC1)OCCCCCCCCCCCCCCCC` (stereo not drawn) [n-C16 H33, 4-Aminomethyl-1-[2,3-(di-n-hexadecyloxy)-n-propyl]-4-phenylpiperidine Dihydrochloride], the “%ILS (increased percent life span)” value was 110% in data set [1] (setting [9]), 105% in data set [1] (setting [10]), 104% in data set [1] (setting [11]) and 127% in data set [1] (setting [12]).
Take `CCCCCCCCCCCCCCCCCCOCC(CN1CCC(CN)(c2ccccc2)CC1)OCCCCCCCCCCCCCCCCCC` (stereo not drawn) [n-C18 H37]: the “%ILS (increased percent life span)” value in data set [1] (setting [9]) was found to be 119%; in data set [1] (setting [10]), 158%; in data set [1] (setting [11]), 98%; in data set [1] (setting [12]), 109%. Moreover, the “number of 40 day survivors” value in data set [1] (1 mg/kg, Intralipid) turned out to be 2.
